Test results: patent US20260183411A1, “TARGETING SORTILIN” (priority 2024, published 2026)

Key:
GAPDH mRNA [1] = test: GAPDH mRNA knockdown in HEK293 cells overexpressing SORT-1 (RT-qPCR); format: cell-based; conditions: HEK293 + SORT1 − CQ
Procedure: (§1) These GAPDH siRNA-peptide conjugates were then evaluated in HEK293 cells and the neuronal cell line, neuro2A.

GAPDH mRNA [2] = test: GAPDH mRNA knockdown in differentiated Neuro-2a cells (RT-qPCR); format: cell-based; conditions: Neuro2a − CQ
Procedure: as §1

Question: How did the “GAPDH mRNA % knockdown compared to untreated cells” value (GAPDH mRNA [1]) turn out when “Maleimide-(bAla)(Sar)(Sar)(Sar)(Sar)APRWDAPLRDPALRQ(B13)(G48) [Peptide 2-GAPDH6-thiol]” was run?
Answer: 40%

Question: And the “GAPDH mRNA % knockdown compared to untreated cells” value (GAPDH mRNA [2])?
Answer: 0%
